Source: ChEMBL document CHEMBL1201862, “PubChem BioAssay data set” (2004)
Blank lines part the entries; values can stand above or below the molecule they belong to. Activity calls are given as the source filed them.

What was measured:
[1] = biological target: SUMO-activating enzyme (Homo sapiens, UniProt Q9UBT2); test: inhibitors of in vitro SUMOylation cascade, primary screen, biochemical, HTRF, uHTS (AID 2006); assay type: protein-complex assay
[2] = biological target: T1, Hexokinase-1 (Homo sapiens, UniProt P19367); test: HK1 enzyme inhibition by HKDC1 hits, SAR follow-up, selectivity assay for HKDC1 inhibitor project, biochemical, set 2, resazurin fluorescence coupled readout (AID 588356); assay type: functional
T1 sequence (P19367 whole entry): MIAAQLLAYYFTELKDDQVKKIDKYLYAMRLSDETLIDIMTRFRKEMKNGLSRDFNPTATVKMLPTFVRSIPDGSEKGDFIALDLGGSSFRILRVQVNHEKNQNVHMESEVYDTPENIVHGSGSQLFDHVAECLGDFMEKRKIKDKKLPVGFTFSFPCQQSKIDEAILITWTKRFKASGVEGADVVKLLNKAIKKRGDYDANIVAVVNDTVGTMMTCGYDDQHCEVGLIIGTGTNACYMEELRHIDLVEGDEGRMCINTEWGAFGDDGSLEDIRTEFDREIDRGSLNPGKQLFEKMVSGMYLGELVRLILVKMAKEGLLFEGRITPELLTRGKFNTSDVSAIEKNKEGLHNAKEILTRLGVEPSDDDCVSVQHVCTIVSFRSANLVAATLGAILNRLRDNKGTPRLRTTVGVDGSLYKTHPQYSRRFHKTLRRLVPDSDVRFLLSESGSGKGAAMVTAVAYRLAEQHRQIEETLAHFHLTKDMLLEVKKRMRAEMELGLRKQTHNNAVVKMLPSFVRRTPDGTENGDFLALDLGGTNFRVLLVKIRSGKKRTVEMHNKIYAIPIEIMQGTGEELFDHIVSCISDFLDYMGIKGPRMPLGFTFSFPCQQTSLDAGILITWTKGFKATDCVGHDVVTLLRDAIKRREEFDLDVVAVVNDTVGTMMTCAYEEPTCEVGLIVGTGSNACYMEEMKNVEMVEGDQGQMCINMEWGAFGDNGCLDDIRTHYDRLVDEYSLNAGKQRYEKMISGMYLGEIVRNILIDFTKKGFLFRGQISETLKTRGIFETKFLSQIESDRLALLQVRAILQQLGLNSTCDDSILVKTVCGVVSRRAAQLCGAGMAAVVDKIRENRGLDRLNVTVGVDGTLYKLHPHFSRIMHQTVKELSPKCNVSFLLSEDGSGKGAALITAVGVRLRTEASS

[3] = biological target: T2, Leucine aminopeptidase (Plasmodium falciparum 3D7, UniProt Q8IL11); test: P. falciparum M17LAP inhibitors, primary screen, biochemical, fluorogenic H-Leu-NHMec substrate, 1536-well (AID 1619); assay type: functional
T2 sequence (Q8IL11 whole entry): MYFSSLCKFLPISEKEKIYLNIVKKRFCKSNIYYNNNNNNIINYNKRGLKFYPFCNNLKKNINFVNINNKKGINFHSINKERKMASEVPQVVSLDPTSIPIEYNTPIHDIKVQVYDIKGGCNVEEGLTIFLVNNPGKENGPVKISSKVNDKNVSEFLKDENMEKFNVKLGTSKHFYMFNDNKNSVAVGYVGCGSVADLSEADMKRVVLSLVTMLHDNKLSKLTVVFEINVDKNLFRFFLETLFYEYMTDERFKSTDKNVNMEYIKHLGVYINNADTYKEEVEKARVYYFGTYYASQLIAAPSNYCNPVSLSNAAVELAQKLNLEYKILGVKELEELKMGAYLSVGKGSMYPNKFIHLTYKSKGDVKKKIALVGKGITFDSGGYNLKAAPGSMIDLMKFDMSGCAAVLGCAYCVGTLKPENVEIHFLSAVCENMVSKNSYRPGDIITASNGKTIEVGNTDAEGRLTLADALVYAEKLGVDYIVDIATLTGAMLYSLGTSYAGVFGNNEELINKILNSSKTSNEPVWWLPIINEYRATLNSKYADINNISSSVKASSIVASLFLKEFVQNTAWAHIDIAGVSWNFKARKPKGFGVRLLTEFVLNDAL

[4] = biological target: T3, Dual specificity protein phosphatase 6 (Rattus norvegicus, UniProt Q64346);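 further: in vitro confirmatory secondary MKP-3 assay designed to detect irreversible or slow-binding inhibitors; recombinant His-tagged rat MKP-3 acting on the substrate OMFP; inhibitor potency from reduced phosphatase rate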
T3 sequence (Q64346 whole entry): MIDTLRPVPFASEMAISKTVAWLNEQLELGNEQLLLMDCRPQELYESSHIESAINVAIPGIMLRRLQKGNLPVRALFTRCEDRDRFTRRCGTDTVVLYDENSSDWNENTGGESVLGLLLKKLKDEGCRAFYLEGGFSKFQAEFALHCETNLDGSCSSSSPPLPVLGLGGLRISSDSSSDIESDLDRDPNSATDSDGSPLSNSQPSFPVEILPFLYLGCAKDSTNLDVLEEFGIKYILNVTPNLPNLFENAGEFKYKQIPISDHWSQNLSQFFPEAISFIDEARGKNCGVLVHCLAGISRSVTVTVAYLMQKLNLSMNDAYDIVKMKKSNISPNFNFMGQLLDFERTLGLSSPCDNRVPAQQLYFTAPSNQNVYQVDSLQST

[5] = biological target: Heat shock 70 kDa protein 1A (Homo sapiens, UniProt P0DMV8); test: Hsp70 inhibitors, SAR follow-up, biochemical, fluorescence polarization (AID 1072)
[6] = biological target: T4, RNA-binding protein pos-1 (Caenorhabditis elegans, UniProt G5EF15); test: inhibitors of POS-1/mex-3 RNA binding, dose response, biochemical, fluorescence polarization (AID 1964);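 further: purified POS-1 fused to maltose binding protein made in E. coli; potency of compounds blocking POS-1 binding to fluorescent RNA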
T4 sequence (G5EF15 whole entry): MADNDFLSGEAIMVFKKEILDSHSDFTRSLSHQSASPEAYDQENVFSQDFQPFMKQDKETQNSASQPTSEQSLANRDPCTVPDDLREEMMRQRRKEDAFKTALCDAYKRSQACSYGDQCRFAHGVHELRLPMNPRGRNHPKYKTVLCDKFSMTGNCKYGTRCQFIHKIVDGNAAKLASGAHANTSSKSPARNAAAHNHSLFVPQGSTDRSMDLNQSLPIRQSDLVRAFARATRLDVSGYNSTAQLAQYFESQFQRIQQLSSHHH

[7] = biological target: Glucose-6-phosphate 1-dehydrogenase (Homo sapiens, UniProt P11413); test: human G6PD enzyme inhibitors, dose response, selectivity assay for P. falciparum G6PD inhibitor project, biochemical, fluorescence (AID 504792); assay type: functional
[8] = cytotoxicity toward NIH3T3 fibroblasts, dose response, counter-screen, cell-based, ATP luminescence, mouse fibroblasts (AID 2010); assay type: functional;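 further: cells exposed to compound for about 90 hours before reading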
[9] = biological target: STE20-like serine/threonine-protein kinase (Homo sapiens, UniProt Q9H2G2); assay type: functional
[10] = biological target: Tyrosine-protein kinase JAK2 (Homo sapiens, UniProt O60674); assay type: functional;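 further: JAK2 tested as one member of a kinase panel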
[11] = biological target: Vascular endothelial growth factor receptor 2 (Homo sapiens, UniProt P35968); assay type: functional
[12] = biological target: Phosphorylase b kinase gamma catalytic chain, liver/testis isoform (Homo sapiens, UniProt P15735); assay type: functional;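 further: PHKG2 measured as one member of a kinome-wide kinase panel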
[13] = biological target: Tyrosine-protein kinase receptor UFO (Homo sapiens, UniProt P30530); assay type: functional
[14] = biological target: Aurora kinase A (Homo sapiens, UniProt O14965); assay type: functional;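 further: value from the Navigating the Kinome kinase panel profiling, panel entry STK6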

Tyrosine-protein kinase receptor UFO, sequence (P30530 whole entry): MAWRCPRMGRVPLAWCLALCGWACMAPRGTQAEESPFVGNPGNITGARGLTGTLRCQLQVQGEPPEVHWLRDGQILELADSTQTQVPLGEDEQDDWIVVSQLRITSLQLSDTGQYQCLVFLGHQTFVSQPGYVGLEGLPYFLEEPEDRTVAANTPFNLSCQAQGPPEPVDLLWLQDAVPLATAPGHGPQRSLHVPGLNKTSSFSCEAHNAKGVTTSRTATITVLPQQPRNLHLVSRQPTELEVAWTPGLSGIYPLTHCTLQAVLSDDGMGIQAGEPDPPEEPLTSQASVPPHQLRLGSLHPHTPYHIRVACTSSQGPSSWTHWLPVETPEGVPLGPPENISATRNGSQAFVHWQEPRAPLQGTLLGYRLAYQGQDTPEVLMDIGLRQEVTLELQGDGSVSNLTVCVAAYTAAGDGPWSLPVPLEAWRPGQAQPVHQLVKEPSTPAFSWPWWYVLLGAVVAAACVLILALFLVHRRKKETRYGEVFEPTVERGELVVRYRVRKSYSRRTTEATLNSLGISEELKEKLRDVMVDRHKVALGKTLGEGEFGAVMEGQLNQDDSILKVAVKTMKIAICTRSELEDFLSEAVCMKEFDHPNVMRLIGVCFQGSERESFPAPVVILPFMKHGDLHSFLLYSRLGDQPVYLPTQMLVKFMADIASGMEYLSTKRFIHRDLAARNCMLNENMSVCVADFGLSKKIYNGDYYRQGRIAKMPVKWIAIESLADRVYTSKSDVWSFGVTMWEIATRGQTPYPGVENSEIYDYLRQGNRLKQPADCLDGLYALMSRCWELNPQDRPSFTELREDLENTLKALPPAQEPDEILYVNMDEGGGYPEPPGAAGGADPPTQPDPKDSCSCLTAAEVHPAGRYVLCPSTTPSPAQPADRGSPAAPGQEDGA
Vascular endothelial growth factor receptor 2, sequence (P35968 whole entry, canonical isoform): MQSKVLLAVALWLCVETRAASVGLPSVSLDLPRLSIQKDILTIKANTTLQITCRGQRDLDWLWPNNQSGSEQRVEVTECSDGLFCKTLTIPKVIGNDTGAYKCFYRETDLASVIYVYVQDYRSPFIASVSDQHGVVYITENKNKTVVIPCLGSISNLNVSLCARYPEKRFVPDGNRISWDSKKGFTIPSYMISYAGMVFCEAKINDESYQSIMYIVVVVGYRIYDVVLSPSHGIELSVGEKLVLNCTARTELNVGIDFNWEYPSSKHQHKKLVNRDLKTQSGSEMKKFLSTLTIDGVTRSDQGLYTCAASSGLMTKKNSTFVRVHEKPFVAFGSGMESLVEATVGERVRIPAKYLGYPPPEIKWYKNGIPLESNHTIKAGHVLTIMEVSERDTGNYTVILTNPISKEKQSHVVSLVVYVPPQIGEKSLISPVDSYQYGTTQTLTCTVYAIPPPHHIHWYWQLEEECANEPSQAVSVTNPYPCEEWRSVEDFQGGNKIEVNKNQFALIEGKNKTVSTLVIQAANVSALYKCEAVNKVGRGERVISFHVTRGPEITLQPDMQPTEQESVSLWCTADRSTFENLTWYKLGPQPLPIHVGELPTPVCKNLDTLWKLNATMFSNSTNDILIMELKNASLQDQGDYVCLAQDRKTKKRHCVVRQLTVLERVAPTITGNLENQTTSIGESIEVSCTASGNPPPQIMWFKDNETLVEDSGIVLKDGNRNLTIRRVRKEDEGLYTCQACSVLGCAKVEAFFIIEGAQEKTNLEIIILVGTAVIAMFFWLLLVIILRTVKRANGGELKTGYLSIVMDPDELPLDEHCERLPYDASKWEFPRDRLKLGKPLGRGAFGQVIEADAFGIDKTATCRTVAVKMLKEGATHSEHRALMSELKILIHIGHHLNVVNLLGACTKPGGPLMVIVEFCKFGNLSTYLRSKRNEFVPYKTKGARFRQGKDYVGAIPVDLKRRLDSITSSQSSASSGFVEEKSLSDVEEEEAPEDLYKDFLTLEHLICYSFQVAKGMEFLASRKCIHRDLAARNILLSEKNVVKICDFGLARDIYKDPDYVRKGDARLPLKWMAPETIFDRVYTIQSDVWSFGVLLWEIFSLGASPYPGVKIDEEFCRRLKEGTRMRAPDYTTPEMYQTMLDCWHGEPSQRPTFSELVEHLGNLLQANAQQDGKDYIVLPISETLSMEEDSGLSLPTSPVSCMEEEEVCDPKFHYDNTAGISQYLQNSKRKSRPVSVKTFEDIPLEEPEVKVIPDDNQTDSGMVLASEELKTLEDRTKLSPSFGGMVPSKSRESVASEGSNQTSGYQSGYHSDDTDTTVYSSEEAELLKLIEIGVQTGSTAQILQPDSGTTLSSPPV
Phosphorylase b kinase gamma catalytic chain, liver/testis isoform, sequence (P15735 whole entry, canonical isoform): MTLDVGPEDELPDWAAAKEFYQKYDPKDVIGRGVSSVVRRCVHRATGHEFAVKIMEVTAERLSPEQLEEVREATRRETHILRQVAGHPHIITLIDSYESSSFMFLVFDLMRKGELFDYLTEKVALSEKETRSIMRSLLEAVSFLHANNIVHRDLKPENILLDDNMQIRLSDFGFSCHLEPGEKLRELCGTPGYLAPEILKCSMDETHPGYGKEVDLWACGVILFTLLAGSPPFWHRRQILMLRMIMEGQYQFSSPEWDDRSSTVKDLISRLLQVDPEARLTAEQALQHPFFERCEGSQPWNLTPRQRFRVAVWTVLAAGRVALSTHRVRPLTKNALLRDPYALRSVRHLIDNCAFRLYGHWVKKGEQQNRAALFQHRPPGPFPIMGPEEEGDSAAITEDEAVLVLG
Glucose-6-phosphate 1-dehydrogenase, sequence (P11413 whole entry): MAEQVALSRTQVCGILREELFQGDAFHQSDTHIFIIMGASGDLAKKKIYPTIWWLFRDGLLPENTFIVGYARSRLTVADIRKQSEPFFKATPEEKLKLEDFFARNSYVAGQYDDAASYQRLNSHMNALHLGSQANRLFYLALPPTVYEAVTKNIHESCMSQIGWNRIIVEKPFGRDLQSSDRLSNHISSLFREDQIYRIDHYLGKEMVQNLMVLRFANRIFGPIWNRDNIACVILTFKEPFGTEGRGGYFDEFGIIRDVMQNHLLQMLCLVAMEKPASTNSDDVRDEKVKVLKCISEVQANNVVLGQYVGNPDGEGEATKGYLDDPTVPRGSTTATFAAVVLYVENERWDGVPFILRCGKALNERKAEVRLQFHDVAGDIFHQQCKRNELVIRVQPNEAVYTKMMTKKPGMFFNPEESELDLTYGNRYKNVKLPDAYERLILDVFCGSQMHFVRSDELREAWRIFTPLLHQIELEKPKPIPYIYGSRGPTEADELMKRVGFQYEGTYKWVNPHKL
SUMO-activating enzyme, sequence (Q9UBE0 whole entry): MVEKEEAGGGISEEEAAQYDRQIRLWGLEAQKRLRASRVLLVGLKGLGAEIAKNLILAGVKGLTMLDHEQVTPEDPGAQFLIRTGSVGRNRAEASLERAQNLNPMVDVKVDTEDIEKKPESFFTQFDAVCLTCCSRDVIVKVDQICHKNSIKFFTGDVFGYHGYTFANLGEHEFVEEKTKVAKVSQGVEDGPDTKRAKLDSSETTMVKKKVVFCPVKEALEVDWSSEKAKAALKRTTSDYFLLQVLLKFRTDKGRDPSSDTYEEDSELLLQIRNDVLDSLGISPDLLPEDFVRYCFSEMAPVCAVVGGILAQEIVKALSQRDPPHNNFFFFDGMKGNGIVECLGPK
SUMO-activating enzyme, sequence (Q9UBT2 whole entry): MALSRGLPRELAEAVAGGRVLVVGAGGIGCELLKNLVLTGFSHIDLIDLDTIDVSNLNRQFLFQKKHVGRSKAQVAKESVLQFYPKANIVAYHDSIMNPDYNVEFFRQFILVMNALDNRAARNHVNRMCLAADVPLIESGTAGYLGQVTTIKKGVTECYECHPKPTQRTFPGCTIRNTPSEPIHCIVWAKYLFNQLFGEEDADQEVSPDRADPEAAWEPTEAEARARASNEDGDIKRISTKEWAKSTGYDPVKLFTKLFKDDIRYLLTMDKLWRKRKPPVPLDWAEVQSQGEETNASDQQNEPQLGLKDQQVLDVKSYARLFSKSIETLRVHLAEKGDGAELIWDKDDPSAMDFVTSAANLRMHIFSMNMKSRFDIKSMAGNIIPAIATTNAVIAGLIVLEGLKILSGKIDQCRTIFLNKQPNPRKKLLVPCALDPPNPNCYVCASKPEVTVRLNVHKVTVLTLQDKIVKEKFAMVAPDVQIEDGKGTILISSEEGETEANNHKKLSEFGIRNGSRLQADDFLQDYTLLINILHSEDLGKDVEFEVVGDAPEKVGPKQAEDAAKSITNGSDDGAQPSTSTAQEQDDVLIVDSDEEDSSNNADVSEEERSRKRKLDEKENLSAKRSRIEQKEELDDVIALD
Heat shock 70 kDa protein 1A, sequence (P0DMV8 whole entry, the tested form may be a part): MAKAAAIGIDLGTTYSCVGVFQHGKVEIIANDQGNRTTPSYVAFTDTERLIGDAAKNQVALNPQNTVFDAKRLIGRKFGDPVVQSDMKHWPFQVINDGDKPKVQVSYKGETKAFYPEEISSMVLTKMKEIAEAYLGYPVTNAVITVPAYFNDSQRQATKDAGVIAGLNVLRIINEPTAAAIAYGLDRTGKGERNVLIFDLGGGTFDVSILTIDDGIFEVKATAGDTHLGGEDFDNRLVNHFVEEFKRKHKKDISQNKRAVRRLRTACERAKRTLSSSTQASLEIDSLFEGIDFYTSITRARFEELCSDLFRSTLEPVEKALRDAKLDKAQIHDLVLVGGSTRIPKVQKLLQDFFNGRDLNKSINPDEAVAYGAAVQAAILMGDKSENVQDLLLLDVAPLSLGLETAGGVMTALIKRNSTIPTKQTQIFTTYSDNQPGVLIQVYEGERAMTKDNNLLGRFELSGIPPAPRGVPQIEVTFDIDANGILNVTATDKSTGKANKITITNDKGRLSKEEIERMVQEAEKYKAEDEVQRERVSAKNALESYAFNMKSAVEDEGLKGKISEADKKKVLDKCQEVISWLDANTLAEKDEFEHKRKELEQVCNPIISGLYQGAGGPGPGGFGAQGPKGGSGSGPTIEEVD

Structure (SMILES): CC(=O)NC1C(=O)N(CCN2CCOCC2)c2ccc(F)cc21 (stereo not given)
IC50 [1]: 12.3 µM (active) | IC50 [2]: > 80 µM (inactive)

IC50 [3]: 26.7 µM (active)
Structure (SMILES): O=C1N=C(NS(=O)(=O)Cc2ccccc2)S/C1=C1\C(=O)Nc2ccccc21

Structure (SMILES): O=C(O)C1Nc2c(O)cc(Cl)c([N+](=O)[O-])c2C2C=CCC12 (stereo not given)
IC50 [4]: 36.8 µM (active) | IC50 [5]: 22.4 µM (active) | EC50 [6]: 216 µM (inconclusive)

Structure (SMILES): Clc1ccc2nc(-c3ccc(Br)s3)cn2c1
IC50 [7]: > 80 µM (inactive)

Structure (SMILES): O=C(CCc1ccccc1)NNc1cc(N2CCCCC2)nc(N2CCCCC2)n1
EC50 [8]: > 60 µM (not active)

Ki [9]: 1 µM (active) | Ki [10]: 1.26 µM (active) | Ki [11]: 3.98 µM (active) | Ki [12]: 0.794 µM (active) | Ki [13]: 0.158 µM (active) | pKi [13]: 6.8 | Ki [14]: 0.631 µM (active)
Structure (SMILES): Cc1n[nH]c2ccc(-c3cncc(OCC(N)Cc4cccc(Cl)c4)c3)cc12 (stereo not given)
